Here are results for ten molecules from patent EP0414952A1, “Dithiolane derivatives” (NIHON NOHYAKU CO., LTD., priority 1989, dated 1991).

For the test, the system named is carbon tetrachloride-induced hepatic disorders. In words: Effect of inhibiting carbon tetrachloride-induced hepatic disorders. Conditions: male mice of dd strain, mean of 5 mice; for Hepatic Disorder index: 30 mg/kg orally in olive oil 6 hours before carbon tetrachloride 0.05 ml/kg orally, sacrificed 24 hours after, visual score 0 (healthy liver) to 6 (heavy disorder); for p-GPT(K.U.): plasma glutamic-pyruvic transaminase activity, Reitman-Frankel method, 30 mg/kg orally 6 hours before carbon tetrachloride 0.05 ml/kg orally, 24 hours after, values above 2,100 counted as 2,100. The class given is in vivo. As to the method: Effect of inhibiting carbon tetrachloride-induced hepatic disorders A test compound was dissolved or suspended in olive oil and the resulting solution or suspension was orally administered to male mice (6 week age) of dd strain in a dose of 30 mg/kg. Six hours after the administration, carbon tetrachloride was orally administered to the mice in a dose of 0.05 ml/kg. The mice were sacrificed 24 hours after the administration of carbon tetrachloride. Degree of hepatic disorders was visually examined. On the other hand, blood was collected when they were sacrificed and plasma was obtained by centrifugation. Plasma glutamic-pyruvic transaminase (GPT) activity was determined according to the Reitman-Frankel method and the activity was expressed by Karmen Unit (K.U.). The hepatic disorder index is evaluated as below. [table] Five (5) mice were used in each group and the results are shown by a mean value. Further with respect to GPT activity, no further measurement was conducted with the case showing more than 2,100 units but for brevity, it was calculated as 2,100 units.

`CN(C)C1SC(=C2C(=O)CCCC2=O)SC1N(C)C` (centres unmarked) [Compound No. 1, 2-((4,5-bis(dimethylamino)-1,3-dithiolan)-2-ylidene)-1,3-dioxocyclohexane]: the “Hepatic Disorder index” value came out at 0.6 and the “p-GPT(K.U.)” value is reported as 17 K.U.

`O=C1CCCC(=O)C1=C1SC(N2CCOCC2)C(N2CCOCC2)S1` (centres unmarked) [Compound No. 2]: the “Hepatic Disorder index” value stood at 0.5 and the “p-GPT(K.U.)” value is reported as 12 K.U.

As for `CN(C)C1SC(=C2C(=O)CC(C)(C)CC2=O)SC1N(C)C` (centres unmarked) [Compound No. 3], the “Hepatic Disorder index” value came out at 1.6 and the “p-GPT(K.U.)” value is reported as 49 K.U.

As to `CCC(=O)OC1SC(=C2C(=O)CCCC2=O)SC1N(C)C` (centres unmarked) [Compound No. 7], the “Hepatic Disorder index” value is 0 and the “p-GPT(K.U.)” value was 15 K.U.

`CCOC(=O)OC1SC(=C2C(=O)CCCC2=O)SC1N(C)C` (centres unmarked) [Compound No. 8]: the “Hepatic Disorder index” value was found to be 0 and the “p-GPT(K.U.)” value is reported as 18 K.U.

As for `CN(C)C1SC(=C2C(=O)CC(C)(C)CC2=O)SC1O` (centres unmarked) [Compound No. 13], the “Hepatic Disorder index” value stood at 0.4 and the “p-GPT(K.U.)” value was found to be 157 K.U.

As for `CCN1CCN(C2SC(=C3C(=O)CC(C)(C)CC3=O)SC2OC(C)=O)CC1` (centres unmarked) [Compound No. 19], the “Hepatic Disorder index” value is listed as 1.0 and the “p-GPT(K.U.)” value amounted to 297 K.U.

As for `CC(=O)OC1SC(=C2C(=O)CC(c3ccc(C)cc3)CC2=O)SC1N(C)C` (centres unmarked) [Compound No. 30], the “Hepatic Disorder index” value was 0.5 and the “p-GPT(K.U.)” value came to 229 K.U.

Regarding `CC(=O)OC1SC(=C2C(=O)CC(c3ccco3)CC2=O)SC1N1CCN(C)CC1` (centres unmarked) [Compound No. 46], the “Hepatic Disorder index” value stood at 0.2 and the “p-GPT(K.U.)” value is 205 K.U.

With `Cc1ccc(C2CC(=O)C(=C3SC(O)C(N(C)C)S3)C(=O)C2)o1` (centres unmarked) [Compound No. 47], the “Hepatic Disorder index” value is 1.6 and the “p-GPT(K.U.)” value came out at 430 K.U.
